Assay results reported in patent US12617783B2, “Heterocyclic GLP-1R agonists” (BIOMEA FUSION, INC., priority 2024, dated 2026).

molecular target: T1, human GLP-1R (Homo sapiens, UniProt P43220); experiment: GLP-1R cAMP assay (Example B1a, HTRF, 30 min at room temperature); assay type: cell-based; settings: cAMP accumulation in HEK293 expressing human GLP-1R, no BETP, 30 min room temperature (Method B1a, compounds ID 1-609), Table 1; read-out: EC50
T1 construct: host or cells: HEK293
Protocol: Assay was carried out with HEK293 expressing human GLP-1R using HTRF assay, developed by Wuxi Apptec. The method is a competitive assay between native cAMP produced by the cells and exogenous cAMP labeled with a proprietary dye d2. The tracer binding is visualized by a mAb anti-cAMP labeled with Cryptate. The signal (i.e. energy transfer) is inversely proportional to the concentration of CAMP in either standard or experimental sample. Compounds were tested in the absence of BETP. Ten microliter of cell suspension in assay buffer (5 mM HEPES, 500 μM IBMX, 0.1% BSA) were added to each well (1,000 cells per well) in a low volume 384-well plate for the assay. Serially diluted compounds were added in 100 nL volume to duplicate wells, by Labcyte Echo. GLP-1 (7-37) was used as positive control. Assay plate was incubated for 30 minutes at room temperature. Stock of cAMP Detection Solution was prepared by mixing 38 parts of cAMP lysis buffer, 1 part of cAMP-D2, 1 part of anti-cAMP cryptate reagent (Cisbio #62AM4PEJ). Ten microliter of the cAMP Detection Solution was added to each well, and the assay plate was incubated for 1 hour at room temperature in the dark. Plates were read on Envision plate reader. The data were analyzed by ScreenUltra in Dotmatics, with % activation expressed using following formula: (Well data−negative control)/(postive control−negative control)*100. Dose response curves were plotted and EC50 values calculated by non-linear regression using 4-parameter fit.

T1 sequence (P43220 24-463): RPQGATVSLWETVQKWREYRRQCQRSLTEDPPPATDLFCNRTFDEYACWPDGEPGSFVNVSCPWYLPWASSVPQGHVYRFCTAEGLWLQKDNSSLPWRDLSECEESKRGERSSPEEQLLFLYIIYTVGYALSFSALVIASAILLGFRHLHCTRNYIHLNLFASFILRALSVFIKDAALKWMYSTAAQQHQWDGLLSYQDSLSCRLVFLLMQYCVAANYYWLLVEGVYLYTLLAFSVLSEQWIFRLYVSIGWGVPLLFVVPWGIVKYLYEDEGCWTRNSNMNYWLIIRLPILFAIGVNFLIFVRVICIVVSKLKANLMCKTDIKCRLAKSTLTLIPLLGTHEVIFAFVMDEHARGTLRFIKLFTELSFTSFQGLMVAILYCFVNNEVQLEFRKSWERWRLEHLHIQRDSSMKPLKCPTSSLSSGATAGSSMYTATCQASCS

Structure (SMILES) | EC50 [µM]
Cc1cc(-n2nc3c(c2-n2ccn(-c4ccc5cnncc5c4)c2=O)[C@@H]2CC[C@H](C3)N2C(=O)c2cc3cc([C@H]4CCOC(C)(C)C4)ccc3n2[C@@]2(c3noc(=O)[nH]3)C[C@@H]2C)cc(C)c1F [Compound 127, 3-((1S,2S)-1-(5-((S)-2,2-dimethyltetrahydro-2H-pyran-4-yl)-2-((4S,7R)-2-(4-fluoro-3,5-dimethylphenyl)-3-(2-oxo-3-(phthalazin-6-yl)-2,3-dihydro-1H-imidazol-1-yl)-2,4,5,6,7,8-hexahydro-4,7-epiminocyclohepta [c]pyrazole-9-carbonyl)-1H-indol-1-yl)-2-methylcyclopropyl)-1,2,4-oxadiazol-5 (4H)-one] | 0.381
Cc1cc(-n2nc3c(c2-n2ccn(-c4ccc5c(cnn5C)c4F)c2=O)[C@@H]2CC[C@H](C3)N2C(=O)c2cc3cc([C@H]4CCOC(C)(C)C4)ccc3n2[C@@]2(c3nnn[nH]3)C[C@@H]2C)cc(C)c1F [Compound 128, 1-((4S,7R)-9-(5-((S)-2,2-dimethyltetrahydro-2H-pyran-4-yl)-1-((1S,2S)-2-methyl-1-(1H-tetrazol-5-yl)cyclopropyl)-1H-indole-2-carbonyl)-2-(4-fluoro-3,5-dimethylphenyl)-2,4,5,6,7,8-hexahydro-4,7-epiminocyclohepta [c]pyrazol-3-yl)-3-(4-fluoro-1-methyl-1H-indazol-5-yl)-1H-imidazol-2 (3H)-one] | 0.137
Cc1cc(-n2nc3c(c2-n2ccn(-c4ccc5c(cnn5C)c4F)c2=O)[C@@H]2CC[C@H](C3)N2C(=O)c2cc3nc(C4CCOC(C)(C)C4)sc3cc2C2(c3noc(=O)[nH]3)CC2)cc(C)c1F (stereo partly drawn) [Compound 129, 3-[1-[2-(2,2-dimethyltetrahydropyran-4-yl)-5-[(1S,8R)-4-(4-fluoro-3,5-dimethyl-phenyl)-3-[3-(4-fluoro-1-methyl-indazol-5-yl)-2-oxo-imidazol-1-yl]-4,5,11-triazatricyclo[6.2.1.02,6]undeca-2,5-diene-11-carbonyl]-1,3-benzothiazol-6-yl]cyclopropyl]-4H-1,2,4-oxadiazol-5-one] | > 10
Cc1cc(-n2nc3c(c2-n2ccn(-c4ccc5c(cnn5C)c4F)c2=O)[C@@H]2CC[C@H](C3)N2C(=O)c2nc3cc(C4CCOC(C)(C)C4)ccc3n2C2(c3noc(=O)[nH]3)CC2)cc(C)c1F (stereo partly drawn) [Compound 130, 3-[1-[5-(2,2-dimethyltetrahydropyran-4-yl)-2-[(1S,8R)-4-(4-fluoro-3,5-dimethyl-phenyl)-3-[3-(4-fluoro-1-methyl-indazol-5-yl)-2-oxo-imidazol-1-yl]-4,5,11-triazatricyclo[6.2.1.02,6]undeca-2,5-diene-11-carbonyl]benzimidazol-1-yl]cyclopropyl]-4H-1,2,4-oxadiazol-5-one] | > 10
Cc1cc(-n2nc3c(c2-n2ccn(-c4ccc5nn(CCN6CCOCC6)cc5c4F)c2=O)[C@@H]2CC[C@H](C3)N2C(=O)c2cc3cc([C@H]4CCOC(C)(C)C4)ccc3n2[C@@]2(c3noc(=O)[nH]3)C[C@@H]2C)cc(C)c1F [Compound 131, 3-[(1S,2S)-1-[5-[(4S)-2,2-dimethyltetrahydropyran-4-yl]-2-[(1S,8R)-4-(4-fluoro-3,5-dimethyl-phenyl)-3-[3-[4-fluoro-2-(2-morpholinoethyl)indazol-5-yl]-2-oxo-imidazol-1-yl]-4,5,11-triazatricyclo[6.2.1.02,6]undeca-2,5-diene-11-carbonyl]indol-1-yl]-2-methyl-cyclopropyl]-4H-1,2,4-oxadiazol-5-one] | > 10
Cc1cc(-n2nc3c(c2-n2ccn(-c4ccc5c(cnn5C)c4F)c2=O)[C@@H]2CC[C@H](C3)N2C(=O)c2cc3sc(C4CCOC(C)(C)C4)nc3cc2C2(c3noc(=O)[nH]3)CC2)cc(C)c1F (stereo partly drawn) [Compound 133, 3-[1-[2-(2,2-dimethyltetrahydropyran-4-yl)-6-[(1S,8R)-4-(4-fluoro-3,5-dimethyl-phenyl)-3-[3-(4-fluoro-1-methyl-indazol-5-yl)-2-oxo-imidazol-1-yl]-4,5,11-triazatricyclo[6.2.1.02,6]undeca-2,5-diene-11-carbonyl]-1,3-benzothiazol-5-yl]cyclopropyl]-4H-1,2,4-oxadiazol-5-one] | > 10
Cc1cc(-n2nc3c(c2-n2ccn(-c4ccc5c(cnn5C)c4F)c2=O)[C@@H]2CC[C@H](C3)N2C(=O)c2cc3cc([C@H]4CCOC(C)(C)C4)ccc3n2C2(c3noc(=O)[nH]3)CCC2)cc(C)c1F [Compound 134, 3-[1-[5-[(4S)-2,2-dimethyltetrahydropyran-4-yl]-2-[(1S,8R)-4-(4-fluoro-3,5-dimethyl-phenyl)-3-[3-(4-fluoro-1-methyl-indazol-5-yl)-2-oxo-imidazol-1-yl]-4,5,11-triazatricyclo[6.2.1.02,6]undeca-2,5-diene-11-carbonyl]indol-1-yl]cyclobutyl]-4H-1,2,4-oxadiazol-5-one] | > 10
Cc1cc(-n2nc3c(c2-n2ccn(-c4ccc5c(cnn5C)c4F)c2=O)[C@@H]2CC[C@H](C3)N2C(=O)c2cc3cc(C4CCOC5(C4)CN(C)C5)ccc3n2C2(c3noc(=O)[nH]3)CC2)cc(C)c1F (stereo partly drawn) [Compound 135, 3-[1-[2-[(1S,8R)-4-(4-fluoro-3,5-dimethyl-phenyl)-3-[3-(4-fluoro-1-methyl-indazol-5-yl)-2-oxo-imidazol-1-yl]-4,5,11-triazatricyclo[6.2.1.02,6]undeca-2,5-diene-11-carbonyl]-5-(2-methyl-5-oxa-2-azaspiro[3.5]nonan-8-yl)indol-1-yl]cyclopropyl]-4H-1,2,4-oxadiazol-5-one] | > 10
Cc1cc(-n2nc3c(c2-n2ccn(-c4ccc5c(cnn5C)c4F)c2=O)[C@@H]2CC[C@H](C3)N2C(=O)c2cc3cc(C4CCOC5(COC5)C4)ccc3n2C2(c3noc(=O)[nH]3)CC2)cc(C)c1F (stereo partly drawn) [Compound 136, 3-[1-[5-(2,5-dioxaspiro[3.5]nonan-8-yl)-2-[(1S,8R)-4-(4-fluoro-3,5-dimethyl-phenyl)-3-[3-(4-fluoro-1-methyl-indazol-5-yl)-2-oxo-imidazol-1-yl]-4,5,11-triazatricyclo[6.2.1.02,6]undeca-2,5-diene-11-carbonyl]indol-1-yl]cyclopropyl]-4H-1,2,4-oxadiazol-5-one] | > 10
Cc1cc(-n2nc3c(c2-n2ccn(-c4ccc5c(cnn5C)c4F)c2=O)[C@@H]2CC[C@H](C3)N2C(=O)c2cc3cc([C@H]4CCOC(C)(C)C4)ccc3n2[C@@]2(C#N)C[C@@H]2C)cc(C)c1F [Compound 137, trans-(1S,2S)-1-[5-[(4S)-2,2-dimethyltetrahydropyran-4-yl]-2-[(1S,8R)-4-(4-fluoro-3,5-dimethyl-phenyl)-3-[3-(4-fluoro-1-methyl-indazol-5-yl)-2-oxo-imidazol-1-yl]-4,5,11-triazatricyclo[6.2.1.02,6]undeca-2,5-diene-11-carbonyl]indol-1-yl]-2-methyl-cyclopropanecarbonitrile] | > 10
Cc1cc(-n2nc3c(c2-n2ccn(-c4ccc5c(cnn5C)c4F)c2=O)[C@@H]2CC[C@H](C3)N2C(=O)c2cc3cc([C@H]4CCOC(C)(C)C4)ccc3n2[C@@]2(C(N)=O)C[C@@H]2C)cc(C)c1F [Compound 138, cis-(1S,2S)-1-[5-[(4S)-2,2-dimethyltetrahydropyran-4-yl]-2-[(1S,8R)-4-(4-fluoro-3,5-dimethyl-phenyl)-3-[3-(4-fluoro-1-methyl-indazol-5-yl)-2-oxo-imidazol-1-yl]-4,5,11-triazatricyclo[6.2.1.02,6]undeca-2,5-diene-11-carbonyl]indol-1-yl]-2-methyl-cyclopropanecarboxamide] | 1.05
Cc1cc(-n2nc3c(c2-n2ccn(-c4ccc5c(cnn5C)c4F)c2=O)[C@@H]2CC[C@H](C3)N2C(=O)c2cc3nc(C4CCOC(C)(C)C4)sc3n2[C@@]2(c3noc(=O)[nH]3)C[C@@H]2C)cc(C)c1F (stereo partly drawn) [Compound 139, 3-[(1S,2S)-1-[2-(2,2-dimethyltetrahydropyran-4-yl)-5-[(1S,8R)-4-(4-fluoro-3,5-dimethyl-phenyl)-3-[3-(4-fluoro-1-methyl-indazol-5-yl)-2-oxo-imidazol-1-yl]-4,5,11-triazatricyclo[6.2.1.02,6]undeca-2,5-diene-11-carbonyl]pyrrolo[3,2-d]thiazol-4-yl]-2-methyl-cyclopropyl]-4H-1,2,4-oxadiazol-5-one] | 3.11
Cc1cc(-n2nc3c(c2-n2ccn(-c4ccc5c(cnn5C)c4F)c2=O)[C@@H]2CC[C@H](C3)N2C(=O)c2cc3cc([C@H]4CCOC(C)(C)C4)ccc3n2C(C)(C)c2noc(=O)[nH]2)cc(C)c1F [Compound 140, 3-[1-[5-[(4S)-2,2-dimethyltetrahydropyran-4-yl]-2-[(1S,8R)-4-(4-fluoro-3,5-dimethyl-phenyl)-3-[3-(4-fluoro-1-methyl-indazol-5-yl)-2-oxo-imidazol-1-yl]-4,5,11-triazatricyclo[6.2.1.02,6]undeca-2,5-diene-11-carbonyl]indol-1-yl]-1-methyl-ethyl]-4H-1,2,4-oxadiazol-5-one] | > 10
